Source: article PMC7136958, “Targeting the pregnane X receptor using microbial metabolite mimicry” (EMBO Molecular Medicine, 2020)
“And” between values parts separate entries of the source, which are not always exact repeats. Identical values can stand only once. Marks after values point to notes of the source that are not given here.

How the values were obtained:
[1] = system: TLR4, CYP3A4, MDR1 mRNA in Caco-2 cells; experiment: RT-qPCR of TLR4, CYP3A4, MDR1 mRNA in PXR-transfected Caco-2 cells; type: cell-based, human; conditions: 10 μM
Protocol: RT–qPCR was performed using Thermo Fisher PowerUp SYBR Green Master Mix (# A25742) and Thermo Fisher qPCR 7900HT. Each sample was repeated in quadruplicate and normalized to internal control, GAPDH. The entire experiment was repeated at least two separate times. The primer sequences are noted in Table 2.

[2] = system: ABCC2, UGT1A1, ABCB1, CYP3A4, GSTA1 mRNA; experiment: PXR target gene mRNA in human duodenal enteroids
Protocol: Discarded duodenum tissue after surgery was obtained and used to isolate crypts. Embedded crypts in Matrigel formed 3D structures referred to as “enteroids”. […] DMSO was added to enteroids as a negative control. After incubation for 24 h, enteroids were collected in RNA‐free tube followed by breaking down Matrigel by pipetting vigorously (using 1 ml PBS). The enteroids were pelleted at 16,000 g for 3 min (4°C). RNA was extracted using miRNA isolation kit (Invitrogen; #AM1561) using the protocol provided by Invitrogen. […] PowerUp SYBR Green (Applied Biosystem, #A25742) was used for RT–PCR and performed 40 cycles using Quant Studio3 (Invitrogen, #A28132).

[3] = system: CYP1A1, CYP3A4, MDR1 mRNA in LS180 cells; experiment: qRT-PCR of CYP1A1, CYP3A4, MDR1 mRNA in LS180 cells with or without (mock) transfected PXR
Protocol: (§1) Cells or primary human hepatocytes from four different donors (HEP200529, HEP220932, HEP200533, and HEP200538) were incubated for 24 h with test compounds; the vehicle was DMSO (0.1% v/v). Total RNA was isolated using TRI Reagent® (Molecular Research Center, Ohio, USA). cDNA was synthesized from 1,000 ng of total RNA using M‐MuLV Reverse Transcriptase (New England Biolabs, Ipswich, Massachusetts, USA) at 42°C for 60 min in the presence of random hexamers (New England Biolabs). Quantitative reverse transcriptase–polymerase chain reaction (qRT–PCR) was performed using LightCycler® 480 Probes Master on a LightCycler® 480 II apparatus (Roche Diagnostic Corporation).
(§2) The following protocol was used: An activation step at 95°C for 10 min was followed by 45 cycles of PCR (denaturation at 95°C for 10 s; annealing with elongation at 60°C for 30 s). The measurements were performed in triplicate. Gene expression was normalized per GAPDH as a housekeeping gene. […] Data are expressed as fold induction ± SD over the vehicle‐treated cells. The bar graph depicts one representative experiment of a series of experiments performed in three consecutive passages of cells. Differences were tested using one‐way ANOVA with Dunnett's post hoc test, and P < 0.05 was considered significant.

[4] = system: PXR target genes in LS174T PXR-KO cells; experiment: PXR target gene mRNA in LS174T PXR-KO cells; type: cell-based, human
Protocol: Figure EV5 LS174T PXR‐knockout (KO) cells are not responsive to PXR ligands • Expression of CYP1A1 and CYP3A4 mRNA in PXR‐knockout and wild‐type LS174T. […] Experiment was performed in 4 independent cell passages (6th, 8th, 10th, and 12th). The mRNA expression of CYP1A1 and CYP3A4 mRNA was determined by RT–PCR, and data were normalized to GAPDH mRNA level. (a) CYP1A1 mRNA. (b) CYP3A4 mRNA. Data are expressed as mean ± SD. • Immunoblot for PXR protein expression in PXR wild‐type and knockout (KO) cells. Experiment was performed in nine independent cell passages (P). • Fold mRNA expression of PXR target genes. Each tissue PCR was repeated in quadruplicate. The expression was normalized to internal control, GAPDH. The entire experiment was repeated n > 2 for reproducibility. The data shown are one representative experiment. Source data are available online for this figure.
Briefly, cells were first tested negative for mycoplasma.

FXR = target: T1, FXR (Homo sapiens, UniProt Q96RI1); experiment: hFXR TR-FRET (LanthaScreen FXR Coactivator Assay); type: biochemical; conditions: 1 nM to 25 µM
T1 construct: purchased Invitrogen PV4833
T1 sequence (Q96RI1 211-486 limits assumed): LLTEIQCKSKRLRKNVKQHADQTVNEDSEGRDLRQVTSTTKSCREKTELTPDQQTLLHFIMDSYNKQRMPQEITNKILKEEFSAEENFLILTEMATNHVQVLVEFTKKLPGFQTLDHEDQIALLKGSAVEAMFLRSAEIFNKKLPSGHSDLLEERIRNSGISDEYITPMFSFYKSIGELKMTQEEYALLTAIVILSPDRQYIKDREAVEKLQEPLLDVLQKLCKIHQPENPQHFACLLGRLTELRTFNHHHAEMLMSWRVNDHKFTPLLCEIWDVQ
Protocol: volume of 20 µl in 384-well black plates, with concentrations of tested compounds in the range from 1
nm, on Infinite F200 microplate reader (Tecan Group Ltd, Switzerland).
All experiments were done in tetraplicates and as two independent experiments. Final EC50 values were obtained by processing the data with GraphPad Prism 6 using standard curve interpolation (sigmoidal, 4PL, variable slope).

IL-8 mRNA = experiment: TNF-α-induced IL-8 mRNA in human colonic enteroids (Calgary Protocol); type: cell-based; conditions: 10 μM, pair-wise vs DMSO
Protocol: Samples were immediately processed to yield isolated colonic crypts as previously described (Fernando et al, 2017). Isolated colonic crypts were embedded in Matrigel® (Corning) and cultured in Intesticult^tm Organoid Growth Media. Human organoids were pretreated for 6 h with either FKK5, FKK6, FKK9, or vehicle (DMSO), then stimulated with human recombinant TNF‐alpha in the presence of either treatment for an additional 12 h. Organoids were washed in PBS, disrupted in Tri Reagent® (Sigma, Oakville, ON, CAN), and frozen at −80°C. After thawing, chloroform was added, samples were centrifuged for 15 min, and the resulting aqueous phase was then added to equal volumes of 70% ethanol and further processed using the RNeasy mini kit (Qiagen). cDNA was synthesized using the QuantiTect RT kit (Qiagen) according to the manufacturer's protocol. Resulting cDNA was used as a template for quantitative real‐time PCR using Perfecta SYBR Green FastMix with ROX (QuantaBio). PCR and analysis were performed using a StepOne PCR System (Applied Biosystems). Gene expression was calculated relative to β‐actin expression and expressed as fold change of control. The primers used were as follows: Human®‐Actin (NM_001101), Human CYP3A4 (NM_001202855), and Human ABCB1 (NM_000927).

hPXR = target: T2, hPXR (Homo sapiens, UniProt O75469); experiment: hPXR TR-FRET competitive binding assay (LanthaScreen); conditions: for 520/495 TR-FRET ratio: replicate wells; for TR-FRET signal (Fig 1e): each column a repeat
T2 sequence (O75469 111-434 limits assumed): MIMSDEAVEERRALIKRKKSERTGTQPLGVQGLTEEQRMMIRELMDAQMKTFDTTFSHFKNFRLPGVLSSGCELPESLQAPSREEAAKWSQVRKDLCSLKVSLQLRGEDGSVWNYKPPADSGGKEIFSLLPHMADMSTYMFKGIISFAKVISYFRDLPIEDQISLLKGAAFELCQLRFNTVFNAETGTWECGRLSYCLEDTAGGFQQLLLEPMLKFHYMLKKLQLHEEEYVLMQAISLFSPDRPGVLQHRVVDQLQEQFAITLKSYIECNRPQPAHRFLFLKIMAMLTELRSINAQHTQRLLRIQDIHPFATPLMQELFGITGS
Protocol: All PXR‐binding assays were performed as two independent experiments, each with a minimum of four replicates. Final IC50 was obtained by processing the data with GraphPad Prism 6 using standard curve interpolation (sigmoidal, 4PL, variable slope).

[5] = system: CYP1A1, CYP3A4, MDR1 mRNA in primary human hepatocytes; experiment: qRT-PCR of CYP1A1, CYP3A4, MDR1 mRNA in primary human hepatocytes (four donors)
Protocol: as §1, §2

[6] = PXR-transfected LS180 cells, normalised to GAPDH, fold to UT control
[7] = mock-transfected LS180 cells, normalised to GAPDH, fold to UT control
[8] = primary human hepatocytes donor Hep200538, normalised to GAPDH, fold to UT control
[9] = primary human hepatocytes, donor Hep200529, normalised to GAPDH, fold vs untreated (UT)
[10] = primary human hepatocytes, donor Hep200533, normalised to GAPDH, fold vs untreated (UT)
[11] = primary human hepatocytes, donor Hep220932, normalised to GAPDH, fold vs untreated (UT)

SMILES: C#CCC(O)(c1ccncc1)c1cc2ccccc2n1S(=O)(=O)c1ccccc1 (centres unmarked) [FKK6]
- CYP3A4 mRNA expression ([1]; 24 h): 3.29 fold
- MDR1 mRNA expression (Fold Change) ([1]; 24 h): 6.45 fold
- TLR4 mRNA expression ([1]; 24 h): 0.49 fold
- CYP3A4 Mean Fold expression ([1]; DMSO = 1): 3.29
- MDR1 Mean Fold expression ([1]; DMSO = 1): 6.45
- hTLR4 Mean Fold expression ([1]; DMSO = 1): 0.49
- PXR target gene induction (in words) [2]: significantly induced
- ABCB1 (MDR1) mRNA fold change, Mean ([2]; 10 μM, 24 h, n=3): 3.883 fold
- ABCC2 mRNA fold change, Mean ([2]; 10 μM, 24 h, n=3): 4.029 fold
- CYP3A4 mRNA fold change, Mean ([2]; 10 μM, 24 h, n=3): 1.665 fold
- GSTA1 mRNA fold change, Mean ([2]; 10 μM, 24 h, n=3): 1.768 fold
- UGT1A1 mRNA fold change, Mean ([2]; 10 μM, 24 h, n=3): 2.472 fold
- CYP1A1 mRNA induction ([3]; LS180 cells): did not induce
- CYP3A4 mRNA induction ([3]; PXR-transfected LS180 cells): induced
- MDR1 mRNA induction ([3]; PXR-transfected LS180 cells): induced
- CYP1A1 mRNA fold to C [3, 6]: 2.02
- CYP3A4 mRNA fold to C [3, 6]: 18.02
- MDR-1 mRNA fold to C [3, 6]: 10.37
- CYP1A1 mRNA fold to C [3, 7]: 4.61
- CYP3A4 mRNA fold to C [3, 7]: 1.10
- MDR1 mRNA fold to C [3, 7]: 5.17
- PXR target gene induction [4]: did not induce
- FXR ligand agonist activity (FXR): did not observe any significant ligand agonist activity
- TNF-α-induced IL-8 mRNA levels (IL-8 mRNA): did not reach statistical significance
- 520/495 TR-FRET ratio (hPXR; 0.001 uM): 0.4136 and 0.4057 and 0.5035 and 0.4539
- 520/495 TR-FRET ratio (hPXR; 0.005 uM): 0.6293 and 0.6196 and 0.5845 and 0.6237
- 520/495 TR-FRET ratio (hPXR; 0.01 uM): 0.6566 and 0.5913 and 0.6411 and 0.6166
- 520/495 TR-FRET ratio (hPXR; 0.05 uM): 0.6583 and 0.5743 and 0.6162 and 0.6466
- 520/495 TR-FRET ratio (hPXR; 0.1 uM): 0.7390 and 0.6524 and 0.6459 and 0.6637
- 520/495 TR-FRET ratio (hPXR; 0.5 uM): 0.5359 and 0.4958 and 0.5519 and 0.5445
- 520/495 TR-FRET ratio (hPXR; 1 uM): 0.5035 and 0.4918 and 0.5332 and 0.5717
- 520/495 TR-FRET ratio (hPXR; 5 uM): 0.3896 and 0.3581 and 0.3234 and 0.3736
- 520/495 TR-FRET ratio (hPXR; 10 uM): 0.2832 and 0.3381 and 0.2857 and 0.3170
- 520/495 TR-FRET ratio (hPXR; 25 uM): 0.3206 and 0.2975 and 0.3225 and 0.3589
- TR-FRET signal (Fig 1e) (hPXR; Drug Conc 0,25 uM): 0.6324 and 0.6211 and 0.6238 and 0.5836
- TR-FRET signal (Fig 1e) (hPXR; Drug Conc 1 nM): 0.4136* and 0.4057* and 0.5035* and 0.4539*
- TR-FRET signal (Fig 1e) (hPXR; Drug Conc 5 nM): 0.6293 and 0.6196 and 0.5845 and 0.6237
- TR-FRET signal (Fig 1e) (hPXR; Drug Conc 10 nM): 0.6566 and 0.5913 and 0.6411 and 0.6166
- TR-FRET signal (Fig 1e) (hPXR; Drug Conc 50 nM): 0.6583 and 0.5743 and 0.6162 and 0.6466
- TR-FRET signal (Fig 1e) (hPXR; Drug Conc 10 uM): 0.2832 and 0.3381 and 0.2857 and 0.317
- TR-FRET signal (Fig 1e) (hPXR; Drug Conc 25 uM): 0.3206 and 0.2975 and 0.3225 and 0.3589
- CYP1A1 mRNA induction ([5]; four donors): did not
- CYP3A4 mRNA induction ([5]; four donors): more than twofold induction in one of four hepatocyte samples
- MDR1 mRNA induction ([5]; four donors): MDR1 mRNA induction in one of four hepatocyte samples
- CYP1A1 mRNA fold to C [5, 8]: 15.94
- CYP3A4 mRNA fold to C [5, 8]: 6.17
- MDR-1 mRNA fold to C [5, 8]: 0.95
- CYP1A1 (1A1) mRNA, fold to C [5, 9]: 6.44 fold
- CYP3A4 (3A4) mRNA, fold to C [5, 9]: 2.67 fold
- MDR1 mRNA fold to C [5, 9]: 1.52 fold
- CYP1A1 (1A1) mRNA, fold to C [5, 10]: 3.26 fold
- CYP3A4 (3A4) mRNA, fold to C [5, 10]: 2.13 fold
- MDR-1 mRNA, fold to C [5, 10]: 2.03 fold
- CYP1A1 (1A1) mRNA, fold to C [5, 11]: 0.76 fold
- CYP3A4 (3A4) mRNA, fold to C [5, 11]: 0.97 fold
- MDR-1 mRNA, fold to C [5, 11]: 0.40 fold
